Calls of active or inactive are those of the source.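 Rule for the calls: active = inhibition over 29.93%, a cutoff 3 SD above the screen mean, later confirmed by dose response; inconclusive = over the cutoff but never tested in dose response; inactive = the rest.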

In general, IC50 refers to the concentration needed to halve the response being measured. One may read the inhibition as the change of the read-out against control, counted positive when it falls.

One assay has as its system S. Typhimurium PhoP-regulated promoter-GFP reporter, fluorescence, 4 h. The assay can be described thus: PhoP promoter GFP reporter reduction in Typhimurium – purified and synthesized compounds, set 2, PhoP regulon inhibitor project, dose response (AID 2831).
Conditions: not given
For the compound `COc1c(N2CCN(C(=S)NCc3ccccc3)C(C)C2)c(F)cc2c(=O)c(C(=O)O)cn(C3CC3)c12` (stereo unspecified), the IC50 is 85.5 µM. On the same count and under the same terms, under `COc1ccc(NC(=O)c2cc(Br)c(Br)s2)cn1` stands < 0.15 µM. The same measure, in the same setting: under `COc1cccc(C2Sc3ccccc3NC3=C2C(=O)c2ccccc23)c1` (stereo unspecified) stands 76.8 µM.

`CCOc1ccc(NC(=S)N2CCN(c3cc4c(cc3F)c(=O)c(C(=O)O)cn4CC)CC2)cc1`: the IC50 is 2.03 µM. On the same count and under the same terms, under `N#C/C(=C\c1ccc[nH]1)C(=O)NC1CC1` stands < 0.15 µM; under `CCCCn1c(NS(=O)(=O)c2ccccc2)c(S(=O)(=O)c2ccc(C)cc2)c2nc3ccccc3nc21`, < 0.15 µM. As for `O=S(=O)(Nc1c(S(=O)(=O)c2ccccc2)c2nc3ccccc3nc2n1C1CCCCC1)c1ccccc1`, the IC50 was < 0.15 µM. On the same count and under the same terms, as for `O=C1C2=C(Nc3ccccc3SC2c2ccc(I)cc2)c2ccccc21` (stereo unspecified), the figure is 133 µM; as for `COc1ccccc1Nc1nc(NCc2ccco2)c2ccccc2n1`, < 0.15 µM. Same read-out and setting: under `O=[N+]([O-])c1ccc(CNC2CCCc3ccccc32)cc1` (stereo unspecified) stands 69.1 µM; under `CCn1cc(C(=O)O)c(=O)c2cc(F)c(N3CCN(C(=S)Nc4ccccc4C)CC3)cc21`, 27.9 µM. Consider `C1=C(CCNc2ncnc3c2[nH]c2ccccc23)CCCC1`, for which the IC50 is < 0.15 µM. The same measure, in the same setting: as for `O=C1C2=C(Nc3ccccc3SC2c2ccccc2Br)c2ccccc21` (stereo unspecified), the figure is 88.3 µM; as for `O=C(O)c1cn(-c2ccc(F)cc2)c2cc(Cl)c(F)cc2c1=O`, < 0.15 µM. The same measure, in the same setting: as for `CN(C)CCCN(C(=O)CCc1ccccc1)c1nc2ccc(Cl)cc2s1`, the figure is < 0.15 µM; as for `O=c1c2ccccc2[nH]c2ccc(F)cc12`, < 0.15 µM; as for `Cc1ccc(Nc2cc(C)c3c(O)cccc3n2)cc1C`, 112 µM. Regarding `CCn1cc(C(=O)O)c(=O)c2cc(F)c(N3CCN(C(=S)NC(=O)c4ccccc4F)CC3)cc21`, the IC50 is 106 µM. On the same count and under the same terms, under `S=C(NCc1ccccc1Cl)Nc1ccncc1` stands 146 µM; under `CCn1cc(C(=O)O)c(=O)c2cc(F)c(N3CCN(C(=S)Nc4ccccc4C(F)(F)F)CC3)cc21`, 3.79 µM.

For the compound `O=C1c2ccccc2C2=Nc3ccccc3SC(c3ccccc3F)C12` (stereo unspecified), the IC50 is < 0.15 µM. Same read-out and setting: under `S=C(NCc1ccc(Cl)cc1)Nc1cccc(Cl)c1` stands 58.8 µM; under `O=C(Nc1cccnc1)c1cc(Br)c(Br)s1`, < 0.15 µM. Turning to `CCn1cc(C(=O)O)c(=O)c2cc(F)c(N3CCN(C(=S)NC(=O)c4ccccc4Cl)CC3)cc21`, the IC50 was 42.6 µM. The same measure, in the same setting: under `S=C(NCc1ccc(Cl)cc1)Nc1ccncc1` stands 76.6 µM; under `CCCCCNC(=O)c1cn(CC)c2cc(N3CCN(C)CC3)c(F)cc2c1=O`, < 0.15 µM. Consider `CCn1cc(C(=O)O)c(=O)c2cc(F)c(N3CCN(C(=S)Nc4ccccc4Cl)CC3)cc21`, for which the IC50 was 46.5 µM. On the same count and under the same terms, under `CCCCn1c(NS(=O)(=O)c2ccc(C)cc2)c(S(=O)(=O)c2ccccc2)c2nc3ccccc3nc21` stands < 0.15 µM. The same measure, in the same setting: under `O=C1C2=C(Nc3ccccc3SC2c2ccccc2Cl)c2ccccc21` (stereo unspecified) stands 141 µM; under `CN1CCc2nc(SCC(=O)Nc3cccc(F)c3)c(C#N)c(-c3cccs3)c2C1`, < 0.15 µM.

Test system in the next assay: not listed separately
The description is as above. Conditions: S. Typhimurium PhoP-regulated promoter-GFP reporter, fluorescence, 4 h; at 150 µM (top of the series).
For the compound `O=C(NCc1ccccc1)N1CCCN(Cc2ccccc2F)C1`, the inhibition is -78.3% (inactive). Still for that read-out and setting: as for `Fc1ccccc1NC(=S)NCc1ccc(Cl)cc1`, the figure is -10.3% (inactive); as for `Cc1ccc(CN2CCCN(C(=O)Nc3ccc(Cl)cc3)C2)cc1`, 17.3% (inactive). Consider `COc1cccc(NC(=S)NCc2ccc(Cl)cc2)c1`, for which the inhibition was 2.44% (inactive).

With `O=C(Nc1ccccc1)N1CCCN(Cc2ccc(F)cc2)C1`, the inhibition is -3.43% (inactive). With `COc1ccc(NC(=S)NCc2ccc(Cl)cc2)cc1`, the inhibition is 1.77% (inactive). The same measure, in the same setting: as for `Cc1cccc(NC(=S)NCc2ccc(Cl)cc2)c1`, the figure is 18.9% (inactive); as for `O=C(Nc1ccccc1Cl)N1CCCN(Cc2ccccc2F)C1`, -64.3% (inactive). On to `Cc1ccc(NC(=S)NCc2ccc(Cl)cc2)cc1`, for which the inhibition is 26.1% (inactive). With `CCn1cc(C(=O)O)c(=O)c2cc(F)c(N3CCN(C(=S)NCc4ccccc4)CC3)cc21`, the inhibition was -0.39% (inactive). With `O=C(Nc1ccccc1)N1CCCN(Cc2ccccc2F)C1`, the inhibition is -140% (inactive).

`O=C1C2=C(Nc3ccccc3SC2c2ccccc2C(F)(F)F)c2ccccc21` (stereo unspecified): the inhibition is -23.8% (inactive). Still for that read-out and setting: under `CCn1cc(C(=O)O)c(=O)c2cc(F)c(N3CCN(C(=S)NC)CC3)cc21` stands -22.9% (inactive); under `S=C(NCc1ccc(Cl)cc1)Nc1cccnc1`, -84.8% (inactive); under `O=C1C2=C(Nc3ccccc3SC2c2ccc(C(F)(F)F)cc2)c2ccccc21` (stereo unspecified), -14.5% (inactive). Same read-out and setting: under `O=C(Nc1ccc(Br)cc1)N1CCCN(Cc2ccccc2F)C1` stands -62.1% (inactive); under `CCn1cc(C(=O)O)c(=O)c2cc(F)c(N3CCN(C(=S)Nc4ccc(Cl)cc4)CC3)cc21`, -15% (inactive); under `O=C(Nc1ccc(Cl)cc1)N1CCCN(Cc2ccc(F)cc2)C1`, -86.3% (inactive).

Take `COc1ccccc1NC(=O)N1CCCN(Cc2ccccc2F)C1`: the inhibition was 13.8% (inactive). For `O=C1C2=C(Nc3ccccc3SC2c2ccsc2)c2ccccc21` (stereo unspecified), the inhibition is 7.75% (inactive). As to `S=C(NCc1ccc(Cl)cc1)Nc1ccc(Br)cc1`, the inhibition is -3.88% (inactive).

These data come from PubChem BioAssay AID2831 (Southern Research Specialized Biocontainment Screening …, 2010).
